Values of other authors in patent publication US20050153276A1 (priority 2001, published 2005).

Tested on: human hepatocyte and neuroblastoma cells
Conditions: cited from earlier work

Row | Structure (SMILES) | effect on cell metabolism (acidification rate)
1 | CCOP(=O)(OCC)Oc1ccc([N+](=O)[O-])cc1 [paraoxon] | opposite effects on hepatocyte and neuroblastoma cell metabolism
2 | CCOP(=S)(OCC)Oc1ccc([N+](=O)[O-])cc1 [parathion] | opposite effects on hepatocyte and neuroblastoma cell metabolism
